{"source": "patent US5849484A", "about": "“In vitro assay for inhibitors of the intron self-splicing reaction in Pneumocystis carinii” (University of Medicine & Dentistry of NJ, priority 1995, dated 1998)", "key": {"[1]": {"tested_on": "Group I self-splicing intron (ribozyme) from the 26S rRNA gene of Pneumocystis carinii, isolate Pc1", "assay": "In vitro self-splicing of the Group I intron, assayed by splicing of [32P]RNA precursor or by [alpha-32P]GTP incorporation", "type": "biochemical", "conditions": "for inhibition of splicing at 500 μM: inhibitor at 500 μM; for inhibition of splicing of the 26S rRNA intron: result in words, 5 mM MgCl2, 100 μM GTP unless otherwise indicated, 37° C., 20 minutes; for replacement of GTP in the splicing reaction: equal concentrations to GTP; for mode of inhibition (kinetic analysis): relative to GTP/guanosine", "method": "Polymerase chain reaction (PCR) amplification (56) of the intron from the 26S rRNA gene and a portion of the 5' and 3' flanking exons (660 nucleotides of amplified rRNA gene), between nucleotides 1963 and 2267 of 26S rRNA of isolate Pc1 was performed with primers 4208 (5'-[…]-3') (SEQ ID NO:33), whose first 17 nucleotides are a bacteriophage SP6 promoter (57), and 4358 (5'-GACGAGGCATTTGGCTACC-3') (SEQ ID NO:35) in a DNA Thermal Cycler (Perkin-Elmer-Cetus), under conditions recommended by the manufacturer. For some experiments a longer PCR product (1296 nucleotides of amplified rRNA gene) was generated by similar methods, using primers 4208 and 3734 (5'-[…]-3') to amplify the region between nucleotides 1963 and 2903 of 26S rRNA. Transcription of PCR product DNA (1 μg) by SP6 RNA polymerase to produce E1-I-E2 RNA precursor (1296 or 660 nucleotides in length) was carried out using the Riboprobe System II (Promega) under the recommended conditions.\nRadioactive RNA precursor (1296 nucleotides, 1 nM) was incubated at 37° C. for 30 minutes in the presence of 50 mM Tris-HCl, pH 7.5, 0.4 mM spermidine, 4 units of RNasin, 100 μM guanosine triphosphate (GTP) and the indicated concentrations of MgCl2 in a volume of 10 μl. Reactions were terminated by addition of 10 μl of 8M urea containing 5 mM Na-EDTA, pH 8.0, and 0.025% each of bromphenol blue and xylene cyanol, followed by heating at 65° C. for 3 minutes and PAGE, with visualization by autoradiography. Lane M contains RNA standards (molecular weights 1.77, 1.52, 1.28, 0.78, 0.53, 0.40, 0.28, and 0.16 kd, BRL), 5'-labeled with ^32 p using bacteriophage T4 polynucleotide kinase (Pharmacia). Lane 1, purified RNA precursor; lane 2, GTP omitted, 5 mM MgCl2; lane 3, no MgCl2, 1 mM EDTA; lanes 4-11, reactions run in the presence of 0, 1, 5, 25, 50, 100, 200 or 500 mM MgCl2, respectively. O indicates origin; P, RNA precursor; I, linear intron; E1-E2, spliced RNA product; C, presumed circularized intron. Bands corresponding to the 5' exon (E1) and G-intron-3' exon (I-E2) are not visible on this exposure.\nFIGS. 13A through 13D show the inhibition of intron splicing by antibiotics. All experiments were done with 660 nucleotide RNA precursor. In vitro splicing of [^32 P]RNA precursor was performed in the presence of 5 mM MgCl2 and 100 μM GTP (unless otherwise indicated) at 37° C. for 20 minutes as in FIG. 12. Splicing of unpurified transcripts extracted from SP6 RNA polymerase reactions was performed with 12.5 nM of [α-^32 P]GTP replacing non-radioactive GTP. Bands are identified as in FIG. 12. FIG. 13A: Inhibition by gentamicin and tetracycline. Purified [^32 P]RNA precursor splicing was performed as indicated. Lane 1, control without GTP; lane 2, complete reaction without antibiotics; lanes 3-7, gentamicin present at 50, 100, 200, 250 and 500 μM; lanes 8-12, tetracycline present at 10, 50, 100, 200, and 400 μM. FIG. 13B: Inhibition of intron splicing by gentamicin and tetracycline. Splicing of non-radioactive RNA was assayed in the presence of [^32 P]GTP with no antibiotic (lanes 1 and 7), with 50, 100, 200, 300, and 500 μM gentamicin (lanes 2-6), and with 50, 100, 200, and 400 μM tetracycline (lanes 8-11). FIG. 13C: Splicing inhibition by ethidium bromide. Reactions of [^32 P]RNA precursor were run in the presence of 10 μM GTP (except lane 1 which contained neither GTP nor ethidium bromide); lanes 2-7, reactions run in the presence of ethidium bromide at 0, 0.5, 1, 5, 10, and 25 μM, respectively. […] FIG. 13D: Inhibition of splicing by ethidium bromide, as measured by incorporation of [α-^32 P]GTP. Lanes 1-5, reactions run in the presence of 0, 0.5, 1, 5 and 25 μM ethidium bromide, respectively.\nFIGS. 14A and 14B show the inhibition of intron splicing by pentamidine. Reactions were performed as in FIG. 13, with 660 nucleotide RNA precursor. FIG. 14A: Assays of splicing of [^32 P]RNA precursor. […]"}, "[2]": {"tested_on": "Group I self-splicing intron from the 16S rRNA gene of P. carinii", "assay": "In vitro self-splicing of the intron from the 16S rRNA gene", "type": "biochemical, Pneumocystis carinii", "conditions": "result in words", "description": "Inhibition by aminoglycosides of splicing of other group I introns has previously been described (55,61). […] Some radioactivity remaining at the gel origin and a decrease in precursor entering the gel in the presence of high levels of gentamicin (FIG. 13A) may reflect RNA binding by the antibiotic. […] This mechanism would be consistent with the lack of inhibition of splicing of group II introns by these agents (55,61).\nAlternatively, the paired aromatic rings and/or positively charged moieties of pentamidine might act to distort the intron's secondary structure, which is critical to its catalytic function (63). […] If the ability of pentamidine analogues (49) to inhibit splicing correlates with in vivo activity against experimental PCP then this assay would be useful for this purpose."}, "Saccharomyces cerevisiae": {"tested_on": "Saccharomyces cerevisiae", "conditions": "grown in glycerol versus fermentable sugars; cited from earlier work"}}}
{"compound": "CC1(C)S[C@@H]2[C@H](NC(=O)[C@H](N)c3ccccc3)C(=O)N2[C@H]1C(=O)O", "note": "[Ampicillin]", "values": [{"measurement": "inhibition of splicing at 500 μM", "setting": "[1]", "value": "failed to inhibit"}]}
{"compound": "N=C(N)NCCC[C@@H](N)C(=O)O", "note": "[D-arginine]", "values": [{"measurement": "inhibition of splicing of the 26S rRNA intron", "setting": "[1]", "value": "greater for L-arginine than D-arginine"}]}
{"compound": "CN[C@@H]1[C@@H](O)[C@@H](O[C@@H]2[C@@H](O)[C@H](O[C@H]3O[C@H]([C@@H](C)O)[C@@H](O)[C@H](O)[C@H]3N)[C@@H](N)C[C@H]2N)OC[C@]1(C)O", "note": "[G418]", "values": [{"measurement": "inhibition of splicing at 500 μM", "setting": "[1]", "value": "failed to inhibit splicing"}]}
{"compound": "Nc1nc2c(ncn2[C@@H]2O[C@H](COP(=O)(O)OP(=O)(O)O)[C@@H](O)[C@H]2O)c(=O)[nH]1", "note": "[GDP, guanosine diphosphate]", "values": [{"measurement": "replacement of GTP in the splicing reaction", "setting": "[1]", "value": "replaceable by equal concentrations"}]}
{"compound": "Nc1nc2c(ncn2[C@@H]2O[C@H](COP(=O)(O)O)[C@@H](O)[C@H]2O)c(=O)[nH]1", "note": "[GMP, guanosine monophosphate]", "values": [{"measurement": "replacement of GTP in the splicing reaction", "setting": "[1]", "value": "replaceable by equal concentrations"}]}
{"compound": "Nc1nc2c(ncn2[C@@H]2O[C@H](COP(=O)(O)OP(=O)(O)OP(=O)(O)O)[C@@H](O)[C@H]2O)c(=O)[nH]1", "note": "[GTP, guanosine triphosphate]", "values": [{"measurement": "Km", "setting": "[1]; in vitro splicing, 5 mM MgCl2, 37° C.", "value": 3, "unit": "µM"}]}
{"compound": "N=C(N)NCCC[C@H](N)C(=O)O", "note": "[L-arginine]", "values": [{"measurement": "effect on the first step of the splicing reaction", "setting": "[1]; kinetic analysis", "value": "inhibiting the first step"}, {"measurement": "effect on the second step of the splicing reaction", "setting": "[1]; kinetic analysis", "value": "activate the second step"}, {"measurement": "inhibition of splicing of the 26S rRNA intron", "setting": "[1]", "value": "greater for L-arginine than D-arginine"}]}
{"compound": "N=C(N)c1ccc(OCCCCCOc2ccc(C(=N)N)cc2)cc1", "note": "[Pentamidine]", "values": [{"measurement": "inhibition of splicing of the 16S rRNA intron", "setting": "[2]", "value": "inhibited splicing"}, {"measurement": "effect on the first step of the splicing reaction", "setting": "[1]; kinetic analysis", "value": "acting on the first step"}, {"measurement": "mode of inhibition (kinetic analysis)", "setting": "[1]", "value": "non-competitive"}, {"measurement": "inhibition of splicing of the 26S rRNA intron", "setting": "[1]", "value": "inhibited splicing"}, {"measurement": "sensitivity of growth to pentamidine", "setting": "Saccharomyces cerevisiae", "value": "more sensitive to pentamidine when grown in glycerol than in various fermentable sugars"}]}
{"compound": "N=C(N)NCCC[C@H](N)C(=O)O", "note": "[arginine]", "values": [{"measurement": "mode of inhibition (kinetic analysis)", "setting": "[1]", "value": "competitively"}, {"measurement": "inhibition of splicing of the 26S rRNA intron", "setting": "[1]", "value": "inhibited competitively by high concentrations"}]}
{"compound": "O=C(O)C1=CC(=C(c2ccc(O)c(C(=O)O)c2)c2ccc(O)c(C(=O)O)c2)C=CC1=O", "note": "[aurintricarboxylic acid]", "values": [{"measurement": "inhibition of splicing at 500 μM", "setting": "[1]", "value": "failed to inhibit splicing by either assay"}]}
{"compound": "O=C(N[C@H](CO)[C@H](O)c1ccc([N+](=O)[O-])cc1)C(Cl)Cl", "note": "[chloramphenicol]", "values": [{"measurement": "inhibition of splicing at 500 μM", "setting": "[1]", "value": "failed to inhibit splicing by either assay"}]}
{"compound": "NC(=O)NCCC[C@H](N)C(=O)O", "note": "[citrulline]", "values": [{"measurement": "inhibition of splicing of the 26S rRNA intron", "setting": "[1]", "value": "no detectable inhibition"}]}
{"compound": "CCC[C@@H]1C[C@@H](C(=O)N[C@@H]([C@H]2O[C@H](SC)[C@H](O)[C@@H](O)[C@H]2O)[C@H](C)Cl)N(C)C1", "note": "[clindamycin]", "values": [{"measurement": "inhibition of splicing at 500 μM", "setting": "[1]", "value": "failed to inhibit splicing by either assay"}]}
{"compound": "C[C@@H]1C[C@@H]([C@H](O)CC2CC(=O)NC(=O)C2)C(=O)[C@@H](C)C1", "note": "[cycloheximide]", "values": [{"measurement": "inhibition of splicing at 500 μM", "setting": "[1]", "value": "failed to inhibit splicing by either assay"}]}
{"compound": "CC[n+]1c(-c2ccccc2)c2cc(N)ccc2c2ccc(N)cc21", "note": "[ethidium bromide]", "values": [{"measurement": "inhibition of splicing of the 26S rRNA intron", "setting": "[1]", "value": "completely inhibiting splicing by either assay"}]}
{"compound": "COc1ccc(C[C@H](N)C(=O)N[C@H]2[C@@H](O)[C@H](n3cnc4c(N(C)C)ncnc43)O[C@@H]2CO)cc1", "note": "[puromycin]", "values": [{"measurement": "inhibition of splicing at 500 μM", "setting": "[1]", "value": "failed to inhibit splicing by either assay"}]}
{"compound": "[H]/N=C(/N)N[C@H]1[C@H](O)[C@@H](O)[C@H](O[C@@H]2O[C@@H](C)[C@](O)(C=O)[C@H]2O[C@@H]2O[C@@H](CO)[C@H](O)[C@@H](O)[C@@H]2NC)[C@@H](N/C(N)=N\\[H])[C@@H]1O", "note": "[streptomycin]", "values": [{"measurement": "mode of inhibition (kinetic analysis)", "setting": "[1]", "value": "competition with guanosine"}]}
{"compound": "CN(C)C1C(=O)C(C(N)=O)=C(O)C2(O)C(=O)C3=C(O)c4c(O)cccc4C(C)(O)C3CC12", "note": "(centres unmarked) [tetracycline]", "values": [{"measurement": "mode of inhibition (kinetic analysis)", "setting": "[1]", "value": "non-competitive with GTP"}, {"measurement": "inhibition of splicing of the 26S rRNA intron", "setting": "[1]", "value": "inhibits RNA splicing"}]}
{"compound": "gentamicin", "values": [{"measurement": "sensitivity of splicing assayed by incorporation of [α-32P]GTP into I and I-E2", "setting": "[1]; compared with splicing of radioactive RNA precursor, 12.5 nM [α-32P]GTP", "value": "less sensitive"}, {"measurement": "inhibition of splicing of the 26S rRNA intron", "setting": "[1]", "value": "inhibited splicing"}]}
{"compound": "tri-arginine", "values": [{"measurement": "potency relative to L-arginine / arginine", "setting": "[1]; inhibition of splicing", "value": "at least 1,000 times"}]}
